Experimental data taken from article PMC3446921, “Enhanced Solubilisation of Six PAHs by Three Synthetic Cyclodextrins for Remediation Applications: Molecular Modelling of the Inclusion Complexes” (PLoS ONE, 2012).
≈ marks a conversion by molar mass, not a printed value. Where “and” joins values, the source holds several entries; their conditions need not be identical. Equal values may be shown once.

Legend:
[1] = Phase solubility studies (Higuchi and Connors) with HP-γ-CD; settings: HP-γ-CD 0 to 0.1 M; 1:1 complex; 25°C
[2] = Phase solubility studies (Higuchi and Connors) with HP-β-CD; settings: for Apparent stability constant Kc: HP-β-CD 0 to 0.1 M, 1:1 complex, 25°C
[3] = PAHs aqueous solubility in the absence of CD; settings: 25 °C, water, thermodynamic from solid
Procedure: (§1) 5 mg of each PAH were added to aqueous solutions (10 mL) containing increasing dissolved concentrations (from 0 to 0.1 M) of each CD. The experiments were carried out in triplicate. Flasks were sealed and shaken at 25°C for 1 week. The concentration of each PAH in solution was determined using a Shimadzu HPLC chromatograph equipped with a chromatographic column, Kromasil 100 C18 reverse-phase (5 µm, 15×0.4), coupled to a fluorescence detector (Shimadzu RF-10APXL). The chromatographic conditions were as follows: mobile phase, acetonitrile/water (60∶40); flow, 1.5 mL min^−1; temperature, 30°C. […] To obtain the phase solubility diagrams, the concentration of the PAHs dissolved versus the increasing concentrations of the CDs used were represented.

[4] = ref [40], cited from earlier work
[5] = Phase solubility studies (Higuchi and Connors) with RAMEB; settings: for solubility at 1 week: 25 °C, aqueous with cosolvent or surfactant or cyclodextrin, thermodynamic from solid; for Apparent stability constant Kc: RAMEB 0 to 0.1 M, 1:1 complex, 25°C
[6] = Phase solubility studies: comparison of the six PAHs across the three CDs; settings: for Decreasing order of Se and Kc: per CD; for Decreasing order of PAHs apparent solubility: reached with 0.1 M of the CD
[7] = 1 week
Procedure: as §1

physchem [8] = settings: 25 °C, aqueous with cosolvent or surfactant or cyclodextrin, thermodynamic from solid
physchem [9] = settings: 25 °C, water, thermodynamic from solid
Procedure: as §1

Row | Molecule | Apparent stability constant Kc [1] | Apparent stability constant Kc [2] | solubility at 1 week [3] | Apparent stability constant Kc [5] | Decreasing order of Se and Kc [6] | also measured
1 | c1ccc2cc3ccccc3cc2c1 [ANT, anthracene] | 234 M^−1 and 234 (±35) M^−1 | 3284 (±204) M^−1 | 0.076 µg/mL (≈ 0.426 µM) | 5399 (±52) M^−1 |  | Kc with γ-CD ([4]; γ-CD, [42]): 240 to 330 M⁻¹; solubility at 1 week [5]: ≤ 41 µg/mL; Kc value relative to the lowest one (PYR) ([5]; RAMEB complexes): about 10 fold
2 | 2-Hydroxypropyl-β-CD [HP-β-CD] |  |  |  |  | PHE>ANT>FLT>FLU>PYR>ACE | Decreasing order of PAHs apparent solubility [6]: PHE≥FLU>ACE>FLT>ANT>PYR
3 | c1cc2ccc3cccc4ccc(c1)c2c34 [PYR, pyrene] |  |  |  |  |  | Kc with natural γ-CD ([4]; natural γ-CD, [41]): 250 to 300 M⁻¹
4 | c1ccc2c(c1)Cc1ccccc1-2 [FLU, fluorene] |  |  |  | 2906 (±164) M^−1 |  | PAHs aqueous solubility (S) [7]: 1.90 µg/mL; solubility at 1 week ([5]; aqueous RAMEB solution): ≤ 574 µg/mL
5 | hydroxypropyl-γ-CD [HP-γ-CD] |  |  |  |  | PYR>ACE>FLT>PHE>ANT>FLU | 
6 | c1ccc2c(c1)-c1cccc3cccc-2c13 [FLT, fluoranthene] |  |  |  |  |  | solubility (physchem [8]): ≤ 101 µg/mL; solubility (physchem [9]): 0.26 µg/mL (≈ 1.29 µM)
7 | c1ccc2c(c1)ccc1ccccc12 [PHE, phenanthrene] | 447 (±17) M^−1 | 3871 (±322) M^−1 | 1.2 µg/mL (≈ 6.73 µM) | 4925 (±511) M^−1 |  | Kc value relative to that for ACE ([2]; HP-β-CD complexes): ~6 fold; solubility at 1 week ([5]; aqueous RAMEB solution): ≤ 572 µg/mL
8 | randomly methylated-β-CD [RAMEB] |  |  |  |  | ANT>PHE>FLT>FLU>ACE>PYR | Decreasing order of PAHs apparent solubility [6]: FLU≥PHE>ACE>FLT>ANT>PYR
9 | c1cc2c3c(cccc3c1)CC2 [ACE, acenaphthene] | 758 (±41) M^−1 | 661 (±35) M^−1 | 1.93 µg/mL (≈ 12.5 µM) | 644 (±12) M^−1 |  | solubility at 1 week ([6]; 25 °C, aqueous with cosolvent or surfactant or cyclodextrin, thermodynamic from solid): 125 to 147 µg/mL (≈ 811 to 953 µM)
